The subject of one assay is α-1 Adrenoceptors. The assay is described as follows: Functional antagonism in rat aorta (method not described). Type of assay: cell-based.
The target in another assay is T1, α-1B adrenoreceptor (Rattus norvegicus, UniProt P15823).
T1 construct: from tissue; host or cells: rat spleen
T1 sequence (P15823 1-515): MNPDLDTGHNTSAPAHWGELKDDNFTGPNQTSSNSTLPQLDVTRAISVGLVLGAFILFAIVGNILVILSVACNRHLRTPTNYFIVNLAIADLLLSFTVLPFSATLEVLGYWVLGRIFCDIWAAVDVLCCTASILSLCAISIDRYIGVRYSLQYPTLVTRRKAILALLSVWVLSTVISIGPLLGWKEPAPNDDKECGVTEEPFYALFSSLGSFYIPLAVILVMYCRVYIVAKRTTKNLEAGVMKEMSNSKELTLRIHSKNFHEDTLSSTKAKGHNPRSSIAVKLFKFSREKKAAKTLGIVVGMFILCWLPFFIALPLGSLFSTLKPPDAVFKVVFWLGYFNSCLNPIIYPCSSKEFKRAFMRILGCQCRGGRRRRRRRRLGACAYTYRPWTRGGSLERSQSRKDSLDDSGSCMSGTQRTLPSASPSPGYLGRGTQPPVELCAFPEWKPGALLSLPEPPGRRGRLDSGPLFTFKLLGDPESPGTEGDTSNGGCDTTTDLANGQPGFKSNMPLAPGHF
The assay can be described thus: cell-based. To be noted: phenylephrine-induced contraction, Schild plot; for Kb: read-out: In Vitro Characterization (pA2) Rat Spleen (converted). Put shortly:
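Phenylephrine dose-response curves for contraction were repeated against increasing test-agent concentrations. pA2 was derived by Schild plot [[…] vs log molarity of test agent].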

A further assay has as its system α-1A adrenoreceptor. The assay is described as follows: Functional antagonism: inhibition of PE-induced contraction of canine prostate strips (Schild plot). Type of assay: cell-based. Conditions: phenylephrine-induced contraction. An excerpt: Canine prostate strips were used in vitro as previously described (Hieble, J.P., Boyce, A.J. and Caine, M., Fed. Proc., 45: 2609-2614 (1986)), to determine antagonist potencies against phenylephrine-induced contractions.
Functional assays indicative of pharmacologically defined α-1 adrenoreceptors were used to further characterize compounds. Inhibition of phenylephrine (PE)-induced contraction of canine prostate smooth muscle can be correlated with α-1A adrenoreceptor activation. […] For each of these models, agonist dose response curves were repeated against increasing concentrations of test agent to derive a Schild plot [log ([…]) against log (molarity of test agent)] to determine the pA2.

Counter-ions that a name gives are not always drawn.

In the case of “3-[4-((3aR,9bR)-cis-9-Methoxy-1,2,3,3a,4,9b-hexahydro-[1]-benzopyrano[3,4-c]pyrrol-2-yl]butyl]-7-methoxy-pyrido[3',2':4,5]thieno[3,2-d]pyrimidine-2,4(1H,3H)-dione hydrochloride [Example 33]”, the “In Vitro Characterization (pA2) Rat Aorta” value in the assay with α-1 Adrenoceptors is given as 9.15. Also, at α-1B adrenoreceptor, the “In Vitro Characterization (pA2) Rat Spleen” value is recorded as 7.83.

For `COc1cccc2c1OC[C@H]1CN(CCn3c(=O)[nH]c4c(sc5ccccc54)c3=O)C[C@@H]21.Cl` (racemic) [Example 67, 3-[2-((±)-cis-6-Methoxy-1,2,3,3a,4,9b-hexahydro-[1]-benzopyrano[3,4-c]pyrrol-2-yl)ethyl]-[1]benzthieno[3,2-d]pyrimidine-2,4(1H,3H)-dione hydrochloride], in the assay with α-1A adrenoreceptor, the “In Vitro Characterization (pA2) Dog Prostate” value is reported as 7.33. In addition, the Kb at α-1B adrenoreceptor is 148 nM.

For the compound `COc1cccc2c1[C@H]1CN(CCCCn3c(=O)[nH]c4c(sc5nccnc54)c3=O)C[C@@H]1CO2.Cl.Cl` (racemic) [Example 74, 3-[4-((±)-trans-9-Methoxy-1,2,3,3a,4,9b-hexahydro-[1]-benzopyrano[3,4-c]pyrrol-2-yl)butyl]-pyrazino[2',3':4,5]thieno[3,2-d]pyrimidine-2,4(1H,3H)-dione dihydrochloride], in the assay with α-1A adrenoreceptor, the “In Vitro Characterization (pA2) Dog Prostate” value is recorded as 9.03. In addition, the Kb at α-1B adrenoreceptor is 6.46 nM.

With `COc1cccc2c1[C@@H]1CN(CCCCn3c(=O)[nH]c4c(sc5ncc(Cl)nc54)c3=O)C[C@H]1CO2` [Example 13, 3-[4-((3aS,9bR)-trans-9-Methoxy-1,2,3,3a,4,9b-hexahydro-[1]-benzopyrano[3,4-c]pyrrol-2-yl)butyl]-8-chloro-pyrazino[2',3':4,5]thieno[3,2-d]pyrimidine-2,4(1H,3H)-dione hydrochloride], in the assay with α-1A adrenoreceptor, the “In Vitro Characterization (pA2) Dog Prostate” value was determined as 9.91. In addition, the Kb at α-1B adrenoreceptor was 4.07 nM.

On to `COc1ccc2sc3c(=O)n(CCCCN4C[C@H]5COc6cccc(OC)c6[C@@H]5C4)c(=O)[nH]c3c2n1` [Example 26, 3-[4-((3aS,9bR)-trans-9-Methoxy-1,2,3,3a,4,9b-hexahydro-[1]-benzopyrano[3,4-c]pyrrol-2-yl)butyl]-8-methoxy-pyrido[2',3':4,5]thieno[3,2-d]pyrimidine-2,4(1H,3H)-dione hydrochloride], for which, in the assay with α-1A adrenoreceptor, the “In Vitro Characterization (pA2) Dog Prostate” value is given as 9.15. In addition, at α-1B adrenoreceptor, the Kb is 3.16 nM.

Take `COc1cccc2c1[C@@H]1CN(CCCCn3c(=O)[nH]c4c(sc5ncc(-c6ccccc6)nc54)c3=O)C[C@@H]1CO2` [Example 39, 3-[4-((3aR,9bR)-cis-9-Methoxy-1,2,3,3a,4,9b-hexahydro-[1]-benzopyrano[3,4-c]pyrrol-2-yl)butyl]-8-phenyl-pyrazino[2',3':4,5]thieno[3,2-d]pyrimidine-2,4(1H,3H)-dione hydrochloride]: the “In Vitro Characterization (pA2) Dog Prostate” value in the assay on α-1A adrenoreceptor amounted to 8.52. The Kb on α-1B adrenoreceptor was 148 nM.

For `COc1cccc2c1[C@@H]1CN(CCCCn3c(=O)[nH]c4c(sc5ncc(-c6ccccc6)nc54)c3=O)C[C@H]1CO2` [Example 50, 3-[4-((3aS,9bR)-trans-9-Methoxy-1,2,3,3a,4,9b-hexahydro-[1]-benzopyrano[3,4-c]pyrrol-2-yl)butyl]-8-phenyl-pyrazino[2',3':4,5]thieno[3,2-d]pyrimidine-2,4(1H,3H)-dione hydrochloride], the “In Vitro Characterization (pA2) Dog Prostate” value in the assay with α-1A adrenoreceptor is on record as 8.45. Moreover, at α-1B adrenoreceptor, the Kb was 316 nM.

For the compound `COc1cccc2c1[C@@H]1CCN(CCCCn3c(=O)[nH]c4c(sc5cccnc54)c3=O)C[C@H]1CO2` [Example 95, 3-[4-((4aS,10bR)-trans-10-Methoxy-1,3,4,4a,5,10b-hexahydro-2H-[1]-benzopyrano[3,4-c]pyrido-3-yl)butyl]-pyrido[2',3':4,5]thieno[3,2-d]pyrimidine-2.4(1H,3H)-dione dihydrochloride], the “In Vitro Characterization (pA2) Dog Prostate” value in the assay on α-1A adrenoreceptor stood at 8.58. Besides, on α-1B adrenoreceptor, the Kb is 19.1 nM.

Consider `COc1cccc2c1[C@@H]1CCN(CCCCn3c(=O)[nH]c4c(sc5ncc(Cl)nc54)c3=O)C[C@H]1CO2` [Example 97, 3-[4-((4aS,10bR)-trans-10-Methoxy-1,3,4,4a,5,10b-hexahydro-2H-[1]-benzopyrano[3,4-c]pyrido-3-yl)butyl]-8-chloro-pyrazino[2',3':4,5]thieno[3,2-d]pyrimidine-2,4(1H,3H)-dione dihydrochloride], for which, in the assay with α-1A adrenoreceptor, the “In Vitro Characterization (pA2) Dog Prostate” value is 8.6. On α-1B adrenoreceptor, the Kb is 17.4 nM.

(Values after EP0942911B1, “BENZOPYRANOPYRROLE AND BENZOPYRANOPYRIDINE ALPHA-1 ADRENERGIC COMPOUNDS” (Abbott Laboratories, priority 1996, dated 1998).)
